Measurements reported in ChEMBL document CHEMBL1155173, “Modulation of the cellular accumulation and intracellular activity of daptomycin towards phagocytized Staphylococcus aureus by the P-glycoprotein (MDR1) efflux transporter in human THP-1 macrophages and madin-darby canine kidney cells” (Antimicrob Agents Chemother, 2007).
In brackets after ≈: the same amount, converted by molar mass. Activity calls are given as the source filed them. The calls are words filed in the database; no cut-off is given here.

Columns and labels:
THP-1 [1] = test: Decrease in intracellular calcium concentration in human THP1 cells at 50 uM after 60 mins; assay type: functional; parameters: scale not given: the % may be the effect or the level left
Staphylococcus aureus [2] = test: Antibacterial activity against methicillin-sensitive Staphylococcus aureus ATCC 25923 phagocytized in human THP1 cells after 24 hrs in presence of 1 mg/liter daptomycin; assay type: functional, organism-based; conditions: THP-1
THP-1 [3] = test: Decrease in intracellular calcium concentration in human THP1 cells at 100 uM after 60 mins; assay type: functional; parameters: scale not given: the % may be the effect or the level left
THP-1 [4] = test: Cellular uptake in methicillin-sensitive Staphylococcus aureus ATCC 25923 phagocytized in human mdr1 siRNAs- induced MDR1 deficient human THP1 cells assessed as increase accumulation at 250 mg/liter after 24 hrs by […]; assay type: ADME, cell-based; conditions: thp-1, 24 h
MDCK [5] = test: Cellular uptake in methicillin-sensitive Staphylococcus aureus ATCC 25923 phagocytized in wild type MDCK cells assessed as apparent cellular to extracellular concentration ratio at 250 mg/liter after 24 hrs by fluorimetry in presence of 100 uM verapamil; assay type: ADME, cell-based, Canis lupus familiaris; conditions: dog
THP-1 [6] = test: Cellular uptake in methicillin-sensitive Staphylococcus aureus ATCC 25923 phagocytized in human THP1 cells assessed as apparent cellular to extracellular concentration ratio at 250 mg/liter after 24 hrs by fluorimetry; assay type: ADME, cell-based; conditions: thp-1, 24 h
Staphylococcus aureus [7] = test: Antibacterial activity against methicillin-sensitive Staphylococcus aureus ATCC 25923 phagocytized in human THP1 cells assessed as concentration resulting in no apparent bacterial growth after 24 hrs in presence of 100 uM verapamil; assay type: functional, THP-1
THP-1 [8] = test: Cellular uptake in methicillin-sensitive Staphylococcus aureus ATCC 25923 phagocytized in human THP1 cells assessed as apparent cellular to extracellular concentration ratio at 250 mg/liter after 24 hrs by fluorimetry in presence of 250 uM gemfibrozil; assay type: ADME, cell-based; conditions: thp-1, 24 h
MDCK [9] = test: Cellular uptake in methicillin-sensitive Staphylococcus aureus ATCC 25923 phagocytized in wild type MDCK cells assessed as apparent cellular to extracellular concentration ratio at 250 mg/liter after 24 hrs by fluorimetry in presence of 250 uM gemfibrozil; assay type: ADME, cell-based, Canis lupus familiaris; conditions: dog
Staphylococcus aureus [10] = test: Antibacterial activity against methicillin-sensitive Staphylococcus aureus ATCC 25923 phagocytized in human THP1 cells after 24 hrs in presence of 0.5 uM elacridar; assay type: functional, organism-based; conditions: ATCC 25923, THP-1, 24 h
Staphylococcus aureus [11] = test: Antibacterial activity against methicillin-sensitive Staphylococcus aureus ATCC 25923 phagocytized in wild type MDCK cells assessed as decrease in CFU at 1 mg/liter after 24 hrs in presence of 100 uM verapamil; assay type: functional
Staphylococcus aureus [12] = test: Antibacterial activity against methicillin-sensitive Staphylococcus aureus ATCC 25923 phagocytized in MDCK cells over expressing human […] assessed as decrease in CFU at 1 mg/liter after 24 hrs; assay type: functional
Staphylococcus aureus [13] = test: Antibacterial activity against methicillin-sensitive Staphylococcus aureus ATCC 25923 phagocytized in MDCK cells over expressing human […] assessed as concentration resulting in no apparent bacterial growth after 24 hrs; assay type: functional
Staphylococcus aureus [14] = test: Antibacterial activity against methicillin-sensitive Staphylococcus aureus ATCC 25923 phagocytized in wild type MDCK cells assessed as decrease in CFU at 1 mg/liter after 24 hrs; assay type: functional
Staphylococcus aureus [15] = test: Antibacterial activity against methicillin-sensitive Staphylococcus aureus ATCC 25923 phagocytized in wild type MDCK cells after 24 hrs; assay type: functional, organism-based; conditions: ATCC 25923, MDCK
THP-1 [16] = test: Cellular uptake in methicillin-sensitive Staphylococcus aureus ATCC 25923 phagocytized in human THP1 cells assessed as apparent cellular to extracellular concentration ratio at 250 mg/liter after 24 hrs under 2-deoxyglucose-induced ATP depleted condition by fluorimetry; assay type: ADME, cell-based; conditions: thp-1, 24 h
Staphylococcus aureus [17] = test: Antibacterial activity against methicillin-sensitive Staphylococcus aureus ATCC 25923 phagocytized in MDCK cells over expressing human […] after 24 hrs in presence of 100 uM verapamil; assay type: functional, organism-based; conditions: ATCC 25923, MDCK
THP-1 [18] = test: Cellular uptake in methicillin-sensitive Staphylococcus aureus ATCC 25923 phagocytized in human THP1 cells assessed as apparent cellular to extracellular concentration ratio at 250 mg/liter after 24 hrs by fluorimetry in presence of 100 uM verapamil; assay type: ADME, cell-based; conditions: thp-1, 24 h
Staphylococcus aureus [19] = test: Antibacterial activity against methicillin-sensitive Staphylococcus aureus ATCC 25923 phagocytized in human THP1 cells assessed as decrease in CFU at 1 mg/liter after 24 hrs in presence of 0.5 uM elacridar; assay type: functional, THP-1
Staphylococcus aureus [20] = test: Antibacterial activity against methicillin-sensitive Staphylococcus aureus ATCC 25923 phagocytized in MDCK cells over expressing human […] assessed as concentration resulting in no apparent bacterial growth after 24 hrs in presence of 100 uM verapamil; assay type: functional
MDCK [21] = test: Cellular uptake in methicillin-sensitive Staphylococcus aureus ATCC 25923 phagocytized in MDCK cells over expressing human MDR1 assessed as apparent cellular to extracellular concentration ratio at 250 mg/liter after 24 hrs by fluorimetry; assay type: ADME, cell-based, Canis lupus familiaris; conditions: dog
Staphylococcus aureus [22] = test: Antibacterial activity against methicillin-sensitive Staphylococcus aureus ATCC 25923 phagocytized in human THP1 cells assessed as concentration resulting in no apparent bacterial growth after 24 hrs; assay type: functional, THP-1
MDCK [23] = test: Cellular uptake in methicillin-sensitive Staphylococcus aureus ATCC 25923 phagocytized in MDCK cells over expressing human MDR1 cells assessed as apparent cellular to extracellular concentration ratio at 250 mg/liter after 24 hrs by fluorimetry in presence of 250 uM gemfibrozil; assay type: ADME, cell-based, Canis lupus familiaris; conditions: dog
MDCK [24] = test: Cellular uptake in methicillin-sensitive Staphylococcus aureus ATCC 25923 phagocytized in wild type MDCK cells assessed as apparent cellular to extracellular concentration ratio at 250 mg/liter after 24 hrs by fluorimetry; assay type: ADME, cell-based, Canis lupus familiaris; conditions: dog
Staphylococcus aureus [25] = test: Antibacterial activity against methicillin-sensitive Staphylococcus aureus ATCC 25923 phagocytized in MDCK cells over expressing human […] at 1 mg/liter after 24 hrs; assay type: functional, organism-based; conditions: ATCC 25923, MDCK
Staphylococcus aureus [26] = test: Antibacterial activity against methicillin-sensitive Staphylococcus aureus ATCC 25923 phagocytized in human THP1 cells after 24 hrs; assay type: functional, organism-based; conditions: ATCC 25923, THP-1, 24 h
Staphylococcus aureus [27] = test: Antibacterial activity against methicillin-sensitive Staphylococcus aureus ATCC 25923 phagocytized in human THP1 cells after 24 hrs in presence of 100 uM verapamil; assay type: functional, organism-based; conditions: ATCC 25923, THP-1, 24 h
MDCK [28] = test: Cellular uptake in methicillin-sensitive Staphylococcus aureus ATCC 25923 phagocytized in wild type MDCK cells assessed as apparent cellular to extracellular concentration ratio at 250 mg/liter after 24 hrs by fluorimetry in presence of 1 uM ouabain; assay type: ADME, cell-based, Canis lupus familiaris; conditions: dog
Staphylococcus aureus [29] = test: Antibacterial activity against methicillin-sensitive Staphylococcus aureus ATCC 25923 phagocytized in wild type MDCK cells assessed as concentration resulting in no apparent bacterial growth after 24 hrs in presence of 100 uM verapamil; assay type: functional
MDCK [30] = test: Cellular uptake in methicillin-sensitive Staphylococcus aureus ATCC 25923 phagocytized in MDCK cells over expressing human MDR1 cells assessed as apparent cellular to extracellular concentration ratio at 250 mg/liter after 24 hrs by fluorimetry in presence of 100 uM verapamil; assay type: ADME, cell-based, Canis lupus familiaris; conditions: dog
MDCK [31] = test: Cellular uptake in methicillin-sensitive Staphylococcus aureus ATCC 25923 phagocytized in MDCK cells over expressing human MDR1 cells assessed as apparent cellular to extracellular concentration ratio at 250 mg/liter after 24 hrs by fluorimetry in presence of 1 uM ouabain; assay type: ADME, cell-based, Canis lupus familiaris; conditions: dog
Staphylococcus aureus [32] = test: Antibacterial activity against methicillin-sensitive Staphylococcus aureus ATCC 25923 phagocytized in wild type MDCK cells assessed as concentration resulting in no apparent bacterial growth after 24 hrs; assay type: functional
Staphylococcus aureus [33] = test: Antibacterial activity against methicillin-sensitive Staphylococcus aureus ATCC 25923 phagocytized in human THP1 cells assessed as decrease in CFU at 1 mg/liter after 24 hrs; assay type: functional, THP-1
Staphylococcus aureus [34] = test: Antibacterial activity against methicillin-sensitive Staphylococcus aureus ATCC 25923 phagocytized in human THP1 cells assessed as concentration resulting in no apparent bacterial growth after 24 hrs in presence of 0.5 uM elacridar; assay type: functional, THP-1
Staphylococcus aureus [35] = test: Antibacterial activity against methicillin-sensitive Staphylococcus aureus ATCC 25923 phagocytized in wild type MDCK cells after 24 hrs in presence of 100 uM verapamil; assay type: functional, organism-based; conditions: ATCC 25923, MDCK
THP-1 [36] = test: Cellular uptake in methicillin-sensitive Staphylococcus aureus ATCC 25923 phagocytized in human THP1 cells assessed as apparent cellular to extracellular concentration ratio at 250 mg/liter after 24 hrs by fluorimetry in presence of 1 uM ouabain; assay type: ADME, cell-based; conditions: thp-1, 24 h
Staphylococcus aureus [37] = test: Antibacterial activity against methicillin-sensitive Staphylococcus aureus ATCC 25923 phagocytized in MDCK cells over expressing human […] assessed as decrease in CFU at 1 mg/liter after 24 hrs in presence of 100 uM verapamil; assay type: functional
Staphylococcus aureus [38] = test: Antibacterial activity against methicillin-sensitive Staphylococcus aureus ATCC 25923 phagocytized in human THP1 cells assessed as decrease in CFU at 1 mg/liter after 24 hrs in presence of 100 uM verapamil; assay type: functional, THP-1
THP-1 [39] = test: Decrease in intracellular calcium concentration in human THP1 cells at 250 uM after 60 mins; assay type: functional, cell-based

## C[C@H](CCC(=O)[O-])C[C@H](C)C[C@H](C)C(=O)/C=C(\[O-])[C@H](C)C[C@H](C)C/C=C/[C@@H](C)[C@@H](O)[C@@H](C)[C@@H](O)C[C@@H]1CC[C@@](C)([C@H]2CC[C@@](C)([C@@H](C)O)O2)O1.[Ca+2] [IONOMYCIN CALCIUM]
THP-1 [1]
  Activity: 75%

## COc1cc2c(cc1OC)CN(CCc1ccc(NC(=O)c3cccc4c(=O)c5cccc(OC)c5[nH]c34)cc1)CC2
Staphylococcus aureus [2]
  Activity: Dose-dependent effect

## COc1ccc(CCN(C)CCCC(C#N)(c2ccc(OC)c(OC)c2)C(C)C)cc1OC (stereo unspecified) [VERAPAMIL]
THP-1 [3]
  Activity: 25%
Staphylococcus aureus [2]
  Activity: Dose-dependent effect

## C[C@@H]1O[C@@H](O[C@H]2C[C@@H](O)[C@]3(CO)[C@H]4[C@H](O)C[C@]5(C)[C@@H](C6=CC(=O)OC6)CC[C@]5(O)[C@@H]4CC[C@]3(O)C2)[C@H](O)[C@H](O)[C@H]1O [OUABAIN]
THP-1 [4]
  Activity: Active

## CCCCCCCCCC(=O)N[C@@H](Cc1c[nH]c2ccccc12)C(=O)N[C@H](CC(N)=O)C(=O)N[C@@H](CC(=O)O)C(=O)N[C@@H]1C(=O)NCC(=O)N[C@@H](CCCN)C(=O)N[C@@H](CC(=O)O)C(=O)N[C@H](C)C(=O)N[C@@H](CC(=O)O)C(=O)NCC(=O)N[C@H](CO)C(=O)N[C@@H]([C@H](C)CC(=O)O)C(=O)N[C@@H](CC(=O)c2ccccc2N)C(=O)O[C@@H]1C
MDCK [5]
  Ratio: 0.83
THP-1 [6]
  Ratio: 0.21
Staphylococcus aureus [7]
  Activity: 0.4 mg/L
THP-1 [8]
  Ratio: 0.18
MDCK [9]
  Ratio: 0.18
Staphylococcus aureus [10]
  EC50: 0.27 µg/mL
Staphylococcus aureus [11]
  log10cfu: -2.01
Staphylococcus aureus [12]
  log10cfu: -1.77
Staphylococcus aureus [13]
  Activity: 2.1 mg/L
Staphylococcus aureus [14]
  log10cfu: -1.7
Staphylococcus aureus [15]
  EC50: 0.62 µg/mL (≈ 0.383 µM)
THP-1 [16]
  Ratio: 0.82
Staphylococcus aureus [17]
  EC50: 0.7 µg/mL
THP-1 [18]
  Ratio: 0.75
Staphylococcus aureus [19]
  log10cfu: -1.67
Staphylococcus aureus [20]
  Activity: 0.6 mg/L
MDCK [21]
  Ratio: 0.08
Staphylococcus aureus [22]
  Activity: 1.3 mg/L
MDCK [23]
  Ratio: 0.07
MDCK [24]
  Ratio: 0.23
Staphylococcus aureus [25]
  EC50: 2.67 µg/mL (≈ 1.65 µM)
Staphylococcus aureus [26]
  EC50: 1.14 µg/mL (≈ 0.703 µM)
Staphylococcus aureus [27]
  EC50: 0.31 µg/mL
MDCK [28]
  Ratio: 0.04
Staphylococcus aureus [29]
  Activity: 0.2 mg/L
MDCK [30]
  Ratio: 0.3
MDCK [31]
  Ratio: 0.03
Staphylococcus aureus [32]
  Activity: 0.6 mg/L
Staphylococcus aureus [33]
  log10cfu: -1.6
Staphylococcus aureus [34]
  Activity: 0.4 mg/L
Staphylococcus aureus [35]
  EC50: 0.18 µg/mL
THP-1 [36]
  Ratio: 0.12
Staphylococcus aureus [37]
  log10cfu: -1.78
Staphylococcus aureus [38]
  log10cfu: -1.82
Staphylococcus aureus [2]
  Activity: Dose-dependent effect

## Cc1ccc(C)c(OCCCC(C)(C)C(=O)O)c1
THP-1 [39]
  Activity: inactive
